Values quoted from earlier work in patent publication US20250107560A1, “CHRONOBIOLOGICAL FOOD FOR INFANTS AND METHOD FOR PRODUCING SAME” (priority 2022, published 2025).

Experiments:
[1] = biological target: carrier albumin (Homo sapiens, UniProt P02768); conditions: compared with D-tryptophan
[2] = unlike D-tryptophan

carrier albumin, sequence (P02768 25-609): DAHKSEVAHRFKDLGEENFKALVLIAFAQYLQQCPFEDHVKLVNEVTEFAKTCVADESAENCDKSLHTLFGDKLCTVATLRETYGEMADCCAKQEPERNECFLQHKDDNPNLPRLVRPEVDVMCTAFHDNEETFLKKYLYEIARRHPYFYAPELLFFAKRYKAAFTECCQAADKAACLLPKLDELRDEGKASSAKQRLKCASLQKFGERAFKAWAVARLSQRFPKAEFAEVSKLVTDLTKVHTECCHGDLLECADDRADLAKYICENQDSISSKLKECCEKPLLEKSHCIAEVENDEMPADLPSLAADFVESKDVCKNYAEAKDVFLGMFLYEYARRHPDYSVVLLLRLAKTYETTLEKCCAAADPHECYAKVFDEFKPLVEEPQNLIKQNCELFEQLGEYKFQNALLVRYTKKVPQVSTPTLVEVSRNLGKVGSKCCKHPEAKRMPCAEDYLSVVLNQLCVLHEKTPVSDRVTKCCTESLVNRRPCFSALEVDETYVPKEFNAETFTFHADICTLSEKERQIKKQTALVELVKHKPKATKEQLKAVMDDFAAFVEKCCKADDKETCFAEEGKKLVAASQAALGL

Structure (SMILES)	binding to the carrier albumin, relative to D-tryptophan [1] [times]	toxicity [2]	biological half-life (in vivo)	excreted in the urine as 6-sulfatoxymelatonin (metabolized in the liver)
N[C@@H](Cc1c[nH]c2ccccc12)C(=O)O [L-tryptophan]	100	non-toxic	–	–
COc1ccc2[nH]cc(CCNC(C)=O)c2c1 [Melatonin, melatonin]	–	–	30-45 minutes	approx. 95%
